Results on 18 molecules are retold here after patent US20100113465A1, “7-AZASPIRO[3.5]NONANE-7-CARBOXAMIDE COMPOUNDS” (Pfizer Inc., priority 2008, published 2010).

The target of one assay is T1, rat FAAH (Rattus norvegicus, UniProt P97612).
T1 construct: made in house; host or cells: E. coli
T1 sequence (P97612 1-579): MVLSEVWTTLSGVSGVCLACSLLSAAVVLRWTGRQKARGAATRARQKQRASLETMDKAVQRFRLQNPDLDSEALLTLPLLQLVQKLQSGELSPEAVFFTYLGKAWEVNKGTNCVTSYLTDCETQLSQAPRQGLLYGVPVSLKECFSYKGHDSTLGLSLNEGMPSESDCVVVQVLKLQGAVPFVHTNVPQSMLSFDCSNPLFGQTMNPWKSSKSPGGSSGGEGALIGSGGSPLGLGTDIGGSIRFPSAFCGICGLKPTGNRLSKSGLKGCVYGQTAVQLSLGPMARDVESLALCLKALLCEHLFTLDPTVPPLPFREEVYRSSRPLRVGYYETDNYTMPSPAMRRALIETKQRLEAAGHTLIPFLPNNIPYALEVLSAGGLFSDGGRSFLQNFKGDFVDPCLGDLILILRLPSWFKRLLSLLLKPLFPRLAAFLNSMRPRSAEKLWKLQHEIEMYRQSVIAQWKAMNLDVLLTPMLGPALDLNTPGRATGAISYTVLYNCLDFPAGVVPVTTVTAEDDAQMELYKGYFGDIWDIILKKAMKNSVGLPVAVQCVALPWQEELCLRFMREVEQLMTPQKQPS
The assay is described as follows: FAAH assay, rat FAAH enzyme inhibition (kinact/Ki). The format is biochemical. Particulars: oleamide substrate 50 μM, 30° C.; for kinact/KI: read-out: rFAAH kinact/Ki. The method, then: (§1) The FAAH assay was carried out in 384-well clear polystyrene plates (Evergreen Scientific) in a total volume of 50 μl per well in a manner similar to that described by Mileni et al., Proc. Nat. Acad. Sci. 2008, 105, 12820-12824. All percents are by volume. Serial dilutions of compound were initially prepared in 100% DMSO, and then diluted two-fold into HPLC-grade H2O to give 50% DMSO. To each well, was placed the reaction mixture (40 μl) containing 1-4 nM FAAH, 50 mM NaPi, pH 7.4, 3 mM α-ketoglutarate, 0.15 mM NADH, 7.5 U/ml glutamate dehydrogenase, 2 mM ADP, 1 mM EDTA, and 0.1% Triton X-100 (The concentration shown for each component is the final concentration in the assay). To this mixture, was added 5 μl of a compound of Examples 1 to 56 at various concentrations in 50% DMSO (or 5 μl 50% DMSO for controls). This was immediately followed by the addition of 5 μl oleamide (500 μM) dissolved in 75% EtOH/25% DMSO and the reaction mixture was mixed for 1.5 min. The final concentrations of DMSO and EtOH in the assay were each 7.5%. The reactions were incubated at 30° C. and the absorbance at 340 nm was collected over a period of 90 min with readings taken in 30-second intervals using SpectraMax Plus^384 Microplate Spectrophotometer (Molecular Devices, Sunnyvale, Calif.). The human FAAH and rat FAAH used in the assay was prepared as described in the patent application WO 2006/067613 using wild-type E. coli cells transformed in St. Louis, Mo., U.S.A. The purity of the enzyme was greater than 98% based on an analysis by SDS-polyacrylamide gel electrophoresis followed by Coomassie Blue staining.
(§2) Reaction progress curves were corrected for the non-enzymatic oxidation of NADH by subtraction of absorbancies at each time point obtained from control reactions containing no FAAH enzyme. The loss of enzyme activity as a function of time is well-described by the following mathematical equation (1) for a mono-exponential decay: […]
(§3) where At represents the absorbance at time t, A0 represents the absorbance at time zero, and C represents a constant. Observed rates of enzyme inactivation (kobs) were determined from the non-linear reaction progress curves by fitting the corrected absorbancies to an equation for a mono-exponential decay using the third-party Microsoft Excel plug-in, XLfit (IDBS Limited). Secondary plots of kobs vs. inhibitor concentration were prepared from kobs values obtained from progress curves. Second-order rates for enzyme inactivation, expressed as kinact/Ki (M^−1s^−1), were calculated from the slopes from linear regression analysis of the secondary plot of kobs vs. inhibitor concentration as defined in following equation (2), where [I]<<Ki:
(§4) The concentration of substrate in the assay was equal to the Km for oleamide of 50 μM. Therefore, reported kinact/Ki values are obtained by multiplying resulting slopes by a factor of two (i.e. slope=kinact/(Ki*2)).

The target of the next assay is T2, human FAAH (Homo sapiens, UniProt O00519).
T2 construct: made in house; host or cells: E. coli
T2 sequence (O00519 1-579): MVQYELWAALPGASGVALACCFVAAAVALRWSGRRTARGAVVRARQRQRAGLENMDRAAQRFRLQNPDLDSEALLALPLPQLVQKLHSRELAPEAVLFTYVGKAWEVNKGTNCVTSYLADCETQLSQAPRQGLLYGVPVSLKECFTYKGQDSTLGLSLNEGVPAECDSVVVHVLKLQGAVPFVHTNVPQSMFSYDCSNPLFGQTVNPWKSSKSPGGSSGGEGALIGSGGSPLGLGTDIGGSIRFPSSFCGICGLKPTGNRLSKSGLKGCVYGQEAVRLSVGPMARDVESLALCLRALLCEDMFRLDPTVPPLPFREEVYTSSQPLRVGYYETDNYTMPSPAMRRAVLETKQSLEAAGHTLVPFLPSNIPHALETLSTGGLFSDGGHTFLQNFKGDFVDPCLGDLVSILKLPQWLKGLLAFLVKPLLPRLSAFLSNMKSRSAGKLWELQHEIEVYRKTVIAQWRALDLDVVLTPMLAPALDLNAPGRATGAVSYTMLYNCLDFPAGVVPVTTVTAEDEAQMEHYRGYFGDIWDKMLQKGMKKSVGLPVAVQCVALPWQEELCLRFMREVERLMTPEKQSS
In words: FAAH assay, human FAAH enzyme inhibition (kinact/Ki). The format is biochemical. Conditions: oleamide substrate 50 μM, 30° C.; for kinact/KI: read-out: hFAAH kinact/Ki. The method, then:
as §1, §2, §3, §4

In the case of `Cc1noc(NC(=O)N2CCC3(CC(c4ccc(F)c(Cl)c4)C3)C(C)C2)c1C` (single isomer, unassigned) [Example 42a, 2-(3-chloro-4-fluorophenyl)-N-(3,4-dimethylisoxazol-5-yl)-5-methyl-7-azaspiro[3.5]nonane-7-carboxamide], at rat FAAH, the “rFAAH kinact/Ki” value is 3040 M⁻¹ s⁻¹. Moreover, the “hFAAH kinact/Ki” value at human FAAH came to 1550 M⁻¹ s⁻¹.
Turning to `Cc1noc(NC(=O)N2CCC3(CC(c4ccc(F)c(Cl)c4)C3)C(C)C2)c1C` (single isomer, unassigned) [Example 42b, 2-(3-chloro-4-fluorophenyl)-N-(3,4-dimethylisoxazol-5-yl)-5-methyl-7-azaspiro[3.5]nonane-7-carboxamide], the “rFAAH kinact/Ki” value at rat FAAH is 49.4 M⁻¹ s⁻¹. Also, at human FAAH, the “hFAAH kinact/Ki” value was determined as 37.1 M⁻¹ s⁻¹.
The matching figures for `Cc1noc(NC(=O)N2CCC3(CC(c4ccc(F)c(Cl)c4)C3)C(C)C2)c1C` (single isomer, unassigned) [Example 42c, 2-(3-chloro-4-fluorophenyl)-N-(3,4-dimethylisoxazol-5-yl)-5-methyl-7-azaspiro[3.5]nonane-7-carboxamide]: 3530 M⁻¹ s⁻¹ and 2760 M⁻¹ s⁻¹.
Regarding `Cc1noc(NC(=O)N2CCC3(CC(c4ccc(F)c(Cl)c4)C3)C(C)C2)c1C` (single isomer, unassigned) [Example 42d, 2-(3-chloro-4-fluorophenyl)-N-(3,4-dimethylisoxazol-5-yl)-5-methyl-7-azaspiro[3.5]nonane-7-carboxamide], the “rFAAH kinact/Ki” value at rat FAAH is 860 M⁻¹ s⁻¹. On human FAAH, the “hFAAH kinact/Ki” value was determined as 1100 M⁻¹ s⁻¹.
Regarding `Cc1noc(NC(=O)N2CCC3(CC2)CC(c2cccc(Oc4ccc(Br)cn4)c2)C3)c1C` [Example 11, 2-{3-[(5-bromopyridin-2-yl)oxy]phenyl}-N-(3,4-dimethylisoxazol-5-yl)-7-azaspiro[3.5]nonane-7-carboxamide], the values for the kinact/KI on rat FAAH and on human FAAH were 9990 M⁻¹ s⁻¹ and 2340 M⁻¹ s⁻¹, respectively.
Take `Cc1cccc(C2CC3(CCN(C(=O)Nc4nnnn4C)CC3)C2)c1` [Example 16, 2-(3-methylphenyl)-N-(1-methyl-1H-tetrazol-5-yl)-7-azaspiro[3.5]nonane-7-carboxamide]: the results for the kinact/KI on rat FAAH and on human FAAH were 3200 M⁻¹ s⁻¹ and 9660 M⁻¹ s⁻¹, respectively.
Taken in the same sequence, the figures for `Cc1cccc(C2CC3(CCN(C(=O)Nc4nnc(-c5ccccc5)nn4)CC3)C2)c1` [Example 17, 2-(3-methylphenyl)-N-(6-phenyl-1,2,4,5-tetrazin-3-yl)-7-azaspiro[3.5]nonane-7-carboxamide] were 3940 M⁻¹ s⁻¹ and 2460 M⁻¹ s⁻¹.
The matching figures for `Cc1noc(NC(=O)N2CCC3(CC2)CC(c2cccc(-c4cccc(F)c4)c2)C3)c1C` [Example 31, N-(3,4-dimethylisoxazol-5-yl)-2-(3′-fluorobiphenyl-3-yl)-7-azaspiro[3.5]nonane-7-carboxamide]: 656 M⁻¹ s⁻¹ and 1100 M⁻¹ s⁻¹.
Taken in the same sequence, the figures for `Cc1nnc(NC(=O)N2CCC3(CC2)CC(c2cccc(OC(F)(F)F)c2)C3)o1` [Example 35, N-(5-methyl-1,3,4-oxadiazol-2-yl)-2-[3-(trifluoromethoxy)phenyl]-7-azaspiro[3.5]nonane-7-carboxamide] were 2460 M⁻¹ s⁻¹ and 1530 M⁻¹ s⁻¹.
For the molecule `Cc1noc(NC(=O)N2CCC3(CC2)CC(c2csc(-c4cccc(F)c4)n2)C3)c1C` [Example 37, N-(3,4-dimethylisoxazol-5-yl)-2-[2-(3-fluorophenyl)-1,3-thiazol-4-yl]-7-azaspiro[3.5]nonane-7-carboxamide], the kinact/KI was determined as 1980 M⁻¹ s⁻¹ at rat FAAH and 1900 M⁻¹ s⁻¹ at human FAAH.
The matching figures for `Cc1noc(NC(=O)N2CCC3(CC2)CC(c2nc(-c4ccc(OC(F)(F)F)cc4)cs2)C3)c1C` [Example 38, N-(3,4-dimethylisoxazol-5-yl)-2-{4-[4-(trifluoromethoxy)phenyl]-1,3-thiazol-2-yl}-7-azaspiro[3.5]nonane-7-carboxamide]: 756 M⁻¹ s⁻¹ and 3720 M⁻¹ s⁻¹.
On to `Cc1noc(NC(=O)N2CCC3(CC2)CC(c2ccc(Cl)c(F)c2)C3)c1C` [Example 39, 2-(4-chloro-3-fluorophenyl)-N-(3,4-dimethylisoxazol-5-yl)-7-azaspiro[3.5]nonane-7-carboxamide], for which the kinact/KI on rat FAAH came out at 4120 M⁻¹ s⁻¹; at human FAAH it was 2670 M⁻¹ s⁻¹.
Taken in the same sequence, the figures for `Cc1noc(NC(=O)N2CCC3(CC2)CC(c2ccc(OCc4ccc(F)cc4)cc2)C3)c1C` [Example 40, N-(3,4-dimethylisoxazol-5-yl)-2-{4-[(4-fluorobenzyl)oxy]phenyl}-7-azaspiro[3.5]nonane-7-carboxamide] were 1540 M⁻¹ s⁻¹ and 3050 M⁻¹ s⁻¹.
With `Cc1noc(NC(=O)N2CCC3(CC2)CC(c2ccc(F)c(Cl)c2)C3C)c1C` (stereo not drawn) [Example 41, 2-(3-chloro-4-fluorophenyl)-N-(3,4-dimethylisoxazol-5-yl)-1-methyl-7-azaspiro[3.5]nonane-7-carboxamide], the figures for the kinact/KI on rat FAAH and at human FAAH were 405 M⁻¹ s⁻¹ and 354 M⁻¹ s⁻¹, respectively.
The matching figures for `Cc1noc(NC(=O)N2CCC3(CC(c4ccc(F)c(Cl)c4)C3)C(C)C2)c1C` (stereo not drawn) [Example 42, 2-(3-chloro-4-fluorophenyl)-N-(3,4-dimethylisoxazol-5-yl)-5-methyl-7-azaspiro[3.5]nonane-7-carboxamide]: 1360 M⁻¹ s⁻¹ and 991 M⁻¹ s⁻¹.
Turning to `COC1(c2ccc(F)c(Cl)c2)CC2(CCN(C(=O)Nc3onc(C)c3C)CC2)C1` [Example 43, 2-(3-chloro-4-fluorophenyl)-N-(3,4-dimethylisoxazol-5-yl)-2-methoxy-7-azaspiro[3.5]nonane-7-carboxamide], the kinact/KI amounted to 247 M⁻¹ s⁻¹ on rat FAAH and 494 M⁻¹ s⁻¹ at human FAAH.
The matching figures for `Cc1noc(NC(=O)N2CCC3(CC2)CC(O)(c2ccc(F)c(Cl)c2)C3)c1C` [Example 44, 2-(3-chloro-4-fluorophenyl)-N-(3,4-dimethylisoxazol-5-yl)-2-hydroxy-7-azaspiro[3.5]nonane-7-carboxamide]: 1340 M⁻¹ s⁻¹ and 945 M⁻¹ s⁻¹.
As for `O=C(Nc1nnc(-c2cccc(Cl)c2)o1)N1CCC2(CC1)CC(c1cccc(OC(F)(F)F)c1)C2` [Example 51, N-[5-(3-chlorophenyl)-1,3,4-oxadiazol-2-yl]-2-[3-(trifluoromethoxy)phenyl]-7-azaspiro[3.5]nonane-7-carboxamide], the kinact/KI at rat FAAH worked out at 5460 M⁻¹ s⁻¹; at human FAAH, 2520 M⁻¹ s⁻¹.
